Tests used:
TSPYL5 gene [1] = assay: RT-PCR of TSPYL5 expression level after siRNA transduction, A549; assay type: cell-based, human; settings: A549 cells, 40~80 nM RNAi, compared to siControl
Protocol: (§1) In order to compare the expression levels of TSPYL5 in lung cancer cell lines A549, H460, and H1299, reverse transcription polymerase chain reaction (RT-PCR) was performed. The RT-PCR was performed in the following manner: a mixture of 10 mM dNTPs, 5×RT buffer, 0.5 μg/μl oligo dT, addition of each of 4 μg of heat denaturated (70° C., 10 min) total RNA of lung cancer cell lines H460, A549, and H1299, and 200 U/μl M-MLV RTase, 0.02% diethyl pyrocarbonate (DEPC)-treated sterilized water to a final volume of 20 μl, followed by reaction at 45° C. for 30 min. Next, the mixture was heated to 94° C. for 5 min, and then snap-cooled on ice to deactivate the M-MLV RTase. 1 μl of the cDNA synthesized by the method was mixed with 10× buffer (MgCl2 free), 2.5 mM dNTPs, 10× MgCl2, and Taq DNA polymerase. 10 pmol of primer for TSPYL5 or β-actin was added to the mixture and amplified under the following conditions. Then, for TSPYL5 primer, EcoRI/Forward: 5′-[…]-3′ represented by SEQ ID No: 3 as a forward primer and EcoRI/reverse: 5′-CCGGAATTCTC AGTTGGATTGGCTCACCCC-3′ represented by SEQ ID NO: 4 as a reverse primer were used. Pre-denaturation at 94° C. for 5 min, denaturation at 94° C. for 1 min, annealing at 60° C. for 1.5 min, cycles of elongation at 72° C. for 1 min were performed, followed by post-elongation at 72° C. for 10 min. […]

TSPYL5 gene [2] = assay: RT-PCR of TSPYL5 expression level after siRNA transduction, H1299; assay type: cell-based, human; settings: H1299 cells, 40~80 nM RNAi, compared to siControl
Protocol: as §1

C2-131714: 25mer TSPYL5 stealth-RNAi duplex oligoribonucleotide, SEQ ID Nos: 10 and 11 (chain 1 AAAGGUAGAACUGCAAGGGAUUGGG; chain 2 CCCAAUCCCUUGCAGUUCUACCUUU; Invitrogen Stealth RNAi, modifications not given here)
expression levels of TSPYL5 (TSPYL5 gene [1]): reduced the most effectively
expression levels of TSPYL5 (TSPYL5 gene [2]): reduced the most effectively
